According to ChEMBL document CHEMBL1255550, “Natural product derivatives with bactericidal activity against Gram-positive pathogens including methicillin-resistant Staphylococcus aureus and vancomycin-resistant Enterococcus faecalis” (2010):
Converted amounts (≈) assume the structure as drawn.

Legend:
Format in all cases: functional
[1] = tested on: Staphylococcus aureus; assay: Antibacterial activity against methicillin-resistant Staphylococcus aureus
[2] = tested on: Staphylococcus aureus; assay: Antibacterial activity against Staphylococcus aureus
[3] = tested on: Bacillus subtilis; assay: Antibacterial activity against Bacillus subtilis
[4] = tested on: Enterococcus faecalis; assay: Antibacterial activity against vancomycin-resistant Enterococcus faecalis
[5] = tested on: Bacillus anthracis; assay: Antibacterial activity against Bacillus anthracis
[6] = tested on: Bacillus subtilis; assay: Antibacterial activity against Bacillus subtilis assessed as reduction of bacterial viability at 2 times MIC after 30mins

SMILES	MIC [1] [µg/mL]	MIC [2] [µg/mL]	MIC [3] [µg/mL]	MIC [4] [µg/mL]	MIC [5] [µg/mL]	log10cfu [6]
C[C@H](C[C@H]1CC[C@@H]([C@H](C)Cn2cc(-c3ccccn3)nn2)O1)OC(=O)c1ccccc1	210 (≈ 499 µM)	320 (≈ 761 µM)	20 (≈ 47.6 µM)	26 (≈ 61.8 µM)	320 (≈ 761 µM)	
COC(=O)CCC(=O)O[C@H](C)C[C@H]1CC[C@@H]([C@H](C)Cn2cc(-c3cccc(NC(C)=O)c3)nn2)O1	122 (≈ 251 µM)	370 (≈ 760 µM)	91 (≈ 187 µM)	61 (≈ 125 µM)	180 (≈ 370 µM)	>3
CC(CC1CCC(C(C)Cn2cc(-c3ccccn3)nn2)O1)OC(=O)c1ccccc1 (racemic)		630 (≈ 1500 µM)	40 (≈ 95.1 µM)		630 (≈ 1500 µM)	
Br.COC(=O)CCC(=O)OC(C)CC1CCC(C(C)Cn2cc(-c3cccc(NC(C)=O)c3)nn2)O1 (racemic)		370	180		370	
COC(=O)CCC(=O)O[C@@H](C)C[C@@H]1CC[C@H]([C@@H](C)Cn2cc(-c3cccc(NC(C)=O)c3)nn2)O1 (single isomer, unassigned)		> 730	> 730	> 730	> 730	
C[C@@H](C[C@@H]1CC[C@H]([C@@H](C)Cn2cc(-c3ccccn3)nn2)O1)OC(=O)c1ccccc1 (single isomer, unassigned)		> 630	> 630	> 630	> 630	
